Literature values as cited in PubChem BioAssay AID1259409 (Chemical Carcinogenesis Research Information System (CCRIS), 2018).

Tested on: rodent chemically induced tumor inhibition, incidence and multiplicity
Assay: CCRIS tumor inhibitor studies
Details: Dose [Inhibitor]: 0, Route [Inhibitor]: ORAL, Promoter: NONE USED

## CC[C@H](C)C(=O)O[C@H]1C[C@H](O)C=C2C=C[C@H](C)[C@H](CC[C@@H](O)C[C@@H](O)CC(=O)O)[C@H]21
Carcinogen: 1,2-DIMETHYLHYDRAZINE, 540-73-8, 0.001% IN DRINKING WATER FOR 30 WK (STUDY DURATION: 30 WK), Species: MOUSE, Strain/Sex: ICR/FEMALE, Target Tissue: Type of Lesion: COLON: TUMOR, Dose [Carcinogen]: 10 MG/KG BW 1/WK FOR 15 WK
  tumour outcome (control, treated, inhibition, significance): 21/34 (62%), 14/30 (47%), 24%, not significant
Carcinogen: 1,2-DIMETHYLHYDRAZINE, 540-73-8, 0.005% IN DRINKING WATER FOR 30 WK (STUDY DURATION: 30 WK), Species: MOUSE, Strain/Sex: ICR/FEMALE, Target Tissue: Type of Lesion: COLON: TUMOR, Dose [Carcinogen]: 10 MG/KG BW 1/WK FOR 15 WK
  tumour outcome (control, treated, inhibition, significance): 21/34 (62%), 13/30 (43%), 31%, not significant
Carcinogen: 1,2-DIMETHYLHYDRAZINE, 540-73-8, 0.01% IN DRINKING WATER FOR 25 WK (STUDY DURATION: 25 WK), Species: MOUSE, Strain/Sex: ICR/FEMALE, Target Tissue: Type of Lesion: COLON: TUMOR, Dose [Carcinogen]: 10 MG/KG BW 1/WK FOR 15 WK
  tumour outcome (control, treated, inhibition, significance): 6/15 (40%), 2/15 (13%), 68%, not significant
Carcinogen: N-METHYL-N-NITROSOUREA, 684-93-5, 1 PPM IN DRINKING WATER FOR 36 WK BEGINNING POST CARCINOGEN TREATMENT (STUDY DURATION: 40 WK), Species: RAT, Strain/Sex: F344/FEMALE, Target Tissue: Type of Lesion: COLON: ADENOCARCINOMA, Dose [Carcinogen]: 2 MG 3/WK FOR 3 WK
  tumour outcome (control, treated, inhibition, significance): 24/30 (80%), 23/30 (77%), 4%, not significant
Carcinogen: N-METHYL-N-NITROSOUREA, 684-93-5, 5 PPM IN DRINKING WATER FOR 36 WK BEGINNING POST CARCINOGEN TREATMENT (STUDY DURATION: 40 WK), Species: RAT, Strain/Sex: F344/FEMALE, Target Tissue: Type of Lesion: COLON: ADENOCARCINOMA, Dose [Carcinogen]: 2 MG 3/WK FOR 3 WK
  tumour outcome (control, treated, inhibition, significance): 24/30 (80%), 14/29 (48%), 40%, p<0.05
Carcinogen: N-METHYL-N-NITROSOUREA, 684-93-5, 25 PPM IN DRINKING WATER FOR 36 WK BEGINNING POST CARCINOGEN TREATMENT (STUDY DURATION: 40 WK), Species: RAT, Strain/Sex: F344/FEMALE, Target Tissue: Type of Lesion: COLON: ADENOCARCINOMA, Dose [Carcinogen]: 2 MG 3/WK FOR 3 WK
  tumour outcome (control, treated, inhibition, significance): 24/30 (80%), 15/30 (50%), 38%, p<0.05
Carcinogen: N-METHYL-N-NITROSOUREA, 684-93-5, 200 PPM IN DRINKING WATER FOR 40 WK BEGINNING CONCURRENTLY WITH CARCINOGEN TREATMENT (STUDY DURATION: 40 WK), Species: RAT, Strain/Sex: F344/FEMALE, Target Tissue: Type of Lesion: COLON: ADENOCARCINOMA, Dose [Carcinogen]: 2 MG 3/WK FOR 2 WK
  tumour outcome (control, treated, inhibition, significance): 11/16 (69%), 10/16 (63%), 9%, not significant
